Patent US8318704B2, “Modulation of neural stem cells and neural progenitor cells” (NeuroNova AB, priority 2002, dated 2012)

What was measured:
[1] = system: adult mouse NSC; assay: Intracellular ATP assay (cell number) in neurosphere-derived NSC; type: cell-based; conditions: for intracellular ATP levels, and hence cell number, relative to control: 3 days; for intracellular ATP levels, and hence NSC number, factor alone: S1P 100 nM or EGF 0.1 nM alone, 3 days (FIG. 8)
Method: (§1) The anterior lateral wall of the lateral ventricle of 5-6 week old mice was enzymatically dissociated in 0.8 mg/ml hyaluronidase and 0.5 mg/ml trypsin in DMEM containing 4.5 mg/ml glucose and 80 units/ml DNase at 37° C. for 20 min. The cells were gently triturated and mixed with three volumes of Neurosphere medium (DMEM/F12, B27 supplement, 12.5 mM HEPES pH7.4) containing 20 ng/ml EGF (unless otherwise stated), 100 units/ml penicillin and 100 μg/ml streptomycin. After passing through a 70 μm strainer, the cells were pelleted at 160×g for 5 min. The supernatant was subsequently removed and the cells resuspended in Neurosphere medium supplemented as above, plated out in culture dishes and incubated at 37° C. Neurospheres were ready to be split approximately 7 days after plating.
(§2) To split neurosphere cultures, neurospheres were collected by centrifugation at 160×g for 5 min. The neurospheres were resuspended in 0.5 ml Trypsin/EDTA in HBSS (1×), incubated at 37° C. for 2 min and triturated gently to aid dissociation. Following a further 3 min incubation at 37° C. and trituration, 3 volumes of ice cold NSPH-media-EGF were added to stop further trypsin activity. The cells were pelleted at 220×g for 4 min, resuspended in fresh Neurosphere medium supplemented with 20 ng/ml EGF and 1 nM bFGF plated out and incubated at 37° C.
Mouse neurospheres, cultured as described above, from passage 2, were seeded in DMEM/F12 supplemented with B27 into a 96-well plate as single cells (10000 cells/well) to the substances to be measured were added at the concentrations indicated. After 3 days incubation, intracellular ATP was measured using the ViaLight kit (BioWhittaker) according to the manufacturer's instructions. S1P and LPA were purchased from Avanti Polar Lipids, Inc.
(§3) In assays including pertussis toxin, the toxin was added at 100 ng/ml 24 hours prior to the second passaging. New toxin was added at the same dose in combination with S1P or LPA to the cells and assayed as described above.
In the experiment analysing the combinatory effect of S1P and EGF, S1P at 100 nM was co-incubated with 0.1 nM EGF for 3 days.

[2] = system: adult mouse NSC; assay: 3H-thymidine incorporation into DNA of NSC; type: cell-based
Method: as §1, §2, §3
To determine thymidine incorporation into DNA, neurospheres were split and seeded in Neurosphere medium as single cells in 96-well plates, 10 000 cells/well. Substances to be measured were added in quadruplicates and cells were incubated at 37° C. for 3 days. 3H-thymidine, 10 uCi/ml, was present the last 24 hours. Cells were harvested on to a filter paper and radioactivity was measured. 3H-thymidine (6,7 Ci/mmol) was from PerkinElmer.

[3] = system: primary adult mouse NSC; assay: Primary NSC proliferation and neurosphere formation without growth factors; type: cell-based; conditions: LPA 10 μM, no EGF, 7 days (FIG. 9)
Method: as §1
Anterior lateral wall of the lateral ventricle was dissociated as described in the Methods above (Method A), and the cells resuspended in Neurosphere medium without EGF. The cell suspension was divided into a 24-well plate with triplicates of control (no addition), LPA treated and EGF (1 nM) treated cells. The final concentration of LPA was 10 μM. After 7 days the spheres were counted, inspected for growth and morphology and photographed using a Nikon Eclipse TE300 microscope and Nikon Spot Insight camera.

[4] = system: new born cells in the caudate putamen; assay: Intracerebroventricular infusion, BrdU-positive cells in caudate putamen; type: in vivo, rat; conditions: S1P 10 μM pump concentration, lateral ventricle, 0.5 μl/hr for 14 days
Method: Arrival of animals: 06.1102 (30 animals), 13.11.02 (30 animals) and 20.11.02 (10 animals): Male Wistar rats, ca. 270 g, Harlan-Winkelmann Germany;
Brain infusion kit II; Alzet osmotic mini-pump model 2002 (volume of pump: 200 μl, plus ca. 30-50 μl volume in tubing/flow-moderator; pumping rate: 0.5 μl/h (=12 μl/d) for 14 days; vehicle solution aCSF (artificial cerebrospinal fluid: 148 mM NaCl, 3 mM KCl, 1.4 mM CaCl2, 0.8 mM MgCl2, 1.5 mM Na2HPO4, 0.2 mM NaH2PO4, pH 7.4, sterile filtration; stored at −20° C.
provided as 1 mg solid, dissolved in DMSO, aliquoted and kept in freezer, thawed and added aCSF to make pump solution, 0.1% DMSO maximum. […]
Quantification in ipsilateral hemisphere: two slices (see point “Immunohistochemistry”) counting 2× one box (0.25 mm^2) in caudate putamen on each section.
S1P (10 μM pump concentration) or vehicle, and BrdU (1 mg/ml pump concentration) was infused into the lateral ventricle of adult male Wistar rats at a rate of 0.5 μl/hr for 14 days. […] BrdU incorporated into the nuclei of proliferating cells was detected by DAB-immunohistochemistry. […] For quantification (FIG. 10), sections were taken in duplicate for each animal and counted manually (see above Methods). Results are expressed as the mean±SEM number of BrdU positive cells/0.25 mm^2 (S1P n=8) (Vehicle n=12) (**p<0.005 relative to Vehicle).

[5] = in vitro EC50 listed in the handling of substances table

## lysophosphatidic acid [LPA]
[1]; LPA, two phases: 1-10 nM and 0.11-10 μM, non-adherent conditions (FIG. 5A)
  intracellular ATP levels, and hence cell number, relative to control: statistically significant increases
[2]; LPA 4 nM (FIG. 5B)
  incorporation of tritiated thymidine relative to control: Greater incorporation
[2]; LPA 10 nM (FIG. 5B)
  incorporation of tritiated thymidine relative to control: no significant incorporation
[2]; LPA 10 μM (FIG. 5B)
  incorporation of tritiated thymidine relative to control: Greater incorporation
[3]
  sizes and number of neurospheres versus control: observably greater

## EGF: mitogen (growth factor) for neural progenitors, from BD Biosciences
[1]
  intracellular ATP levels, and hence NSC number, factor alone: increased

## CCCCCCCCCCCCC/C=C/[C@@H](O)[C@@H](N)COP(=O)(O)O [S1P, sphingosine-1-phosphate]
[1]
  intracellular ATP levels, and hence NSC number, factor alone: increased
[1]; S1P 1-100 nM, non-adherent conditions (FIG. 4A)
  intracellular ATP levels, and hence cell number, relative to control: statistically significant increase
[2]; S1P 1-100 nM, 3 days (FIG. 4B)
  incorporation of tritiated thymidine relative to control: Greater incorporation
[4]; adult male Wistar rats
  BrdU labeling of cells in coronal sections through the caudate putamen relative to vehicle: substantially greater number
[4]; n=8, p<0.005 (FIG. 10)
  number of BrdU positive cells/0.25 mm^2 (new born cells) in the caudate putamen relative to vehicle: significant increase
[5]
  EC50: 30 nM
